Assay results as given in ChEMBL document CHEMBL1123646, “2-Phenylpyrroles as conformationally restricted benzamide analogues. A new class of potential antipsychotics. 1” (J Med Chem, 1987).

Experiments:
Mus musculus [1] = test: Antagonism of apomorphine-induced climbing in mice when administered intraperitoneally 30 min prior to apomorphine (1 mg/kg); conditions: ip
Rattus norvegicus [2] = test: Suppression of conditioned avoidance behavior in rats when administered perorally 60 min before measurement; assay type: functional; conditions: po
D(2) dopamine receptor = D(2) dopamine receptor (Rattus norvegicus, UniProt P61169); test: Ability to inhibit the [3H]spiperone binding to striatum Dopamine receptor D2 was determined in rat; assay type: tissue-based
Chain of D(2) dopamine receptor (P61169 whole entry): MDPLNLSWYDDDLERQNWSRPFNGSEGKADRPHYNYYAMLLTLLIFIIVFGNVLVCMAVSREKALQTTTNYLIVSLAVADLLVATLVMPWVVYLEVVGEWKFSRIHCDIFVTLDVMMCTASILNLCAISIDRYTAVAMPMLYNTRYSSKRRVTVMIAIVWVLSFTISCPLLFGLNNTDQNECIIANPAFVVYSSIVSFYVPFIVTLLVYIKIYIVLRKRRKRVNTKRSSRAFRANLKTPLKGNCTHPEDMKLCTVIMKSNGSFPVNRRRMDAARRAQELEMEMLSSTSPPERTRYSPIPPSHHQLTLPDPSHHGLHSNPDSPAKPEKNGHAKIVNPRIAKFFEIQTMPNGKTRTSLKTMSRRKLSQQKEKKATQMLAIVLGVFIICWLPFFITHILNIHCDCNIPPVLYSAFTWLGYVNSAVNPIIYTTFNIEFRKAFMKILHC

Mus musculus [3] = test: Antagonism of apomorphine-induced climbing in mice when administered perorally 60 min prior to apomorphine (1 mg/kg); assay type: functional; conditions: po
[4] = molecular target: T1, Adrenergic receptor alpha-1 (Rattus norvegicus, UniProt P15823+P23944+P43140); test: Ability to inhibit [3H]WB-4101 binding to alpha-1 adrenergic receptor was determined in rat
T1 sequence (P15823 whole entry): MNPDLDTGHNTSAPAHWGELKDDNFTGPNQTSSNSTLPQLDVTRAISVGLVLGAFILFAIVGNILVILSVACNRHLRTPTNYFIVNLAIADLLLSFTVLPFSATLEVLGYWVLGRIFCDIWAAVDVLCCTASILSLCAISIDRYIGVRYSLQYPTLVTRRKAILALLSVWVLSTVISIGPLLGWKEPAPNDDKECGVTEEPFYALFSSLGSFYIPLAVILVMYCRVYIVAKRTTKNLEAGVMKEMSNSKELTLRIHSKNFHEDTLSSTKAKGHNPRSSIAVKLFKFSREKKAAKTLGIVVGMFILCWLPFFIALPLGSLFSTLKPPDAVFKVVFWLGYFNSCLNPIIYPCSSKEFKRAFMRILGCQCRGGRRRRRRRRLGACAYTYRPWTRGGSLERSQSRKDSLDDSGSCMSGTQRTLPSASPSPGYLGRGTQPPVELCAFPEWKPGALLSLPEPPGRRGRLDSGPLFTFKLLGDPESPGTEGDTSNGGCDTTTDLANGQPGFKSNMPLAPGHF
T1 sequence (P23944 whole entry): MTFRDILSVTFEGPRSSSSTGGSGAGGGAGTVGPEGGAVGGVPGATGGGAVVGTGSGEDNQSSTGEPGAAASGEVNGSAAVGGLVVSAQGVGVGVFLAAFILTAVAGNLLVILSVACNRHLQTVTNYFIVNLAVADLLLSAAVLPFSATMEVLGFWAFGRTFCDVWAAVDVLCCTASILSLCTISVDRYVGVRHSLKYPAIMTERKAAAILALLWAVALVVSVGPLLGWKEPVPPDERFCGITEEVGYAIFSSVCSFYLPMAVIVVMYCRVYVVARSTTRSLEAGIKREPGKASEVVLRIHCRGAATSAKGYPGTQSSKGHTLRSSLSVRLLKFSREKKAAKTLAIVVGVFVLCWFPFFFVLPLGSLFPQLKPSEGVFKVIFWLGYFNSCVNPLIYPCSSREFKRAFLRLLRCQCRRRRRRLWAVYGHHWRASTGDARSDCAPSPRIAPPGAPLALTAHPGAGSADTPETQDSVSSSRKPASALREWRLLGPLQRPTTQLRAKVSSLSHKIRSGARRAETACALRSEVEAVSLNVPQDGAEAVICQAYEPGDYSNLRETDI
T1 sequence (P43140 whole entry): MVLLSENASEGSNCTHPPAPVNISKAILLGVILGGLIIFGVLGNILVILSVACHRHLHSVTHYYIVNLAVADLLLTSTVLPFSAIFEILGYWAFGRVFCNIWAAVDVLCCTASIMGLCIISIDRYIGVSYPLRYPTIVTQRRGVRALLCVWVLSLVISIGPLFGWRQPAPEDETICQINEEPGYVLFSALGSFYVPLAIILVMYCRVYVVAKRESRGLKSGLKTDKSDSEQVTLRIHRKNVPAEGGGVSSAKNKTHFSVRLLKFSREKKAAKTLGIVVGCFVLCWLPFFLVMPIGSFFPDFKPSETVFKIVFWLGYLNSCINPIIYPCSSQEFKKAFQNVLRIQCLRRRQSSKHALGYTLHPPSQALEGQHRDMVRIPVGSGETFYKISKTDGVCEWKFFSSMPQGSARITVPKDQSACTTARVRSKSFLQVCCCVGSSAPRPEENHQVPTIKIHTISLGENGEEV

[5] = molecular target: Serotonin 2 (5-HT2) receptor (Rattus norvegicus, UniProt P30994+P08909+P14842); test: Ability to inhibit [3H]spiperone binding to 5-hydroxytryptamine 2 receptor determined in rat
Rattus norvegicus [6] = test: Suppression of conditioned avoidance behavior in rats when administered intraperitoneally 30 min before measurement; conditions: ip
Rattus norvegicus [7] = test: Induction of catalepsy in rats when administered intraperitoneally 4 hr prior to measurement to groups of 9 animals. value is based on at least three dose levels(40% of animals showed catalepsy); assay type: functional; conditions: ip

Ki (D(2) dopamine receptor)	Ki [4]	Ki [5]	SMILES	ED50 (Mus musculus [1])	ED50 (Rattus norvegicus [2])	ED50 (Mus musculus [3])	ED50 (Rattus norvegicus [6])	ED50 (Rattus norvegicus [7])
29 nM	–	–	CCN1CCCC1c1ccc(-c2cc(S(=O)(=O)CC)ccc2OC)[nH]1 (configuration not stated)	4.7 mg/kg	35 mg/kg	11.4 mg/kg	–	–
9.3 nM	1100 nM	54000 nM	CCN1CCC[C@H]1CNC(=O)c1cc(S(=O)(=O)CC)ccc1OC	> 10 mg/kg	70 mg/kg	36 mg/kg	–	–
0.91 nM	57 nM	310 nM	COc1ccccc1N1CCN(Cc2ccc(-c3ccc(F)cc3)[nH]2)CC1	0.2 mg/kg	8.5 mg/kg	0.9 mg/kg	2.3 mg/kg	> 24 mg/kg
–	9 nM	700 nM	COc1ccccc1N1CCN(CCNC(=O)c2ccc(F)cc2)CC1	0.4 mg/kg	30 mg/kg	15 mg/kg	0.74 mg/kg	> 7.4 mg/kg
1100 nM	1600 nM	9300 nM	OC1(c2ccc(Cl)cc2)CCN(Cc2ccc(-c3ccc(F)cc3)[nH]2)CC1	25 mg/kg	> 50 mg/kg	51 mg/kg	> 20 mg/kg	–
7.3 nM	–	–	CCS(=O)(=O)c1ccc(OC)c(-c2ccc(CN3CCN(c4ccccc4OC)CC3)[nH]2)c1	> 20 mg/kg	> 50 mg/kg	35 mg/kg	> 20 mg/kg	–
480 nM	250 nM	–	O=C(NCCN1CCC(O)(c2ccc(Cl)cc2)CC1)c1ccc(F)cc1	9 mg/kg	> 50 mg/kg	20 mg/kg	–	–
150 nM	–	–	CCS(=O)(=O)c1ccc(OC)c(-c2ccc(CN3CCC(O)(c4ccc(Cl)cc4)CC3)[nH]2)c1	> 20 mg/kg	–	> 100 mg/kg	–	–
2.9 nM	0.87 nM	52 nM	COc1ccccc1N1CCN(CCCC(=O)c2ccc(F)cc2)CC1 [FLUANISONE]	0.4 mg/kg	> 50 mg/kg	25 mg/kg	2.2 mg/kg	≥ 22 mg/kg
–	–	–	O=C(CCCN1CCC(O)(c2ccc(Cl)cc2)CC1)c1ccc(F)cc1 [HALOPERIDOL]	0.08 mg/kg	0.8 mg/kg	–	0.45 mg/kg	2 mg/kg
–	15000 nM	–	CCN1CCC[C@H]1CNC(=O)c1cc(S(N)(=O)=O)ccc1OC [LEVOSULPIRIDE]	> 21 mg/kg	> 220 mg/kg	195 mg/kg	> 100 mg/kg	–
